The results in this text go back to PubChem BioAssay AID1259407 (Chemical Carcinogenesis Research Information System (CCRIS), 2018).

Each structure is given as a SMILES string. Calls of active or inactive are those of the source. No rule for the calls is given here.

The data set has as its system CCRIS mutagenicity, Ames/micronucleus/aberration tests. As to the kind of experiment: CCRIS mutagenicity studies.
Setting [1] is: Test System: Ames Salmonella typhimurium, Strain/Indicator: TA98, Metabolic Activation: None, Method: Preincubation.
Setting [2] is: Test System: Ames Salmonella typhimurium, Strain/Indicator: TA100, Metabolic Activation: None, Method: Preincubation.
Setting [3] is: Test System: AMES SALMONELLA TYPHIMURIUM, Strain/Indicator: TA98, Metabolic Activation: NONE, Method: PREINCUBATION
Where [4] appears, read: Test System: AMES SALMONELLA TYPHIMURIUM, Strain/Indicator: TA100, Metabolic Activation: NONE, Method: PREINCUBATION
Setting [5] is: Test System: AMES SALMONELLA TYPHIMURIUM, Strain/Indicator: TA100, Metabolic Activation: RAT, LIVER, S-9, AROCLOR 1254, Method: PREINCUBATION
Setting [6] is: Test System: AMES SALMONELLA TYPHIMURIUM, Strain/Indicator: TA1538, Metabolic Activation: NONE, Method: PREINCUBATION

In the case of `CN=c1ccc2nc3ccc(N)cc3sc-2c1`, the mutagenic call under setting [1] is “active; positive”; the mutagenic call (Test System: Ames Salmonella typhimurium, Strain/Indicator: TA98, Metabolic Activation: Rat, Liver, S-9, Aroclor 1254 (10%), Method: Preincubation) was “active; positive”; the mutagenic call under setting [2] is “active; positive”; the mutagenic call (Test System: Ames Salmonella typhimurium, Strain/Indicator: TA100, Metabolic Activation: Rat, Liver, S-9, Aroclor 1254 (10%), Method: Preincubation) is “active; positive”; the mutagenic call (Test System: E. coli, Strain/Indicator: WPM uvrA/pKM101, Metabolic Activation: None, Method: Preincubation) was “active; positive”; the mutagenic call (Test System: E. coli, Strain/Indicator: WPM uvrA/pKM101, Metabolic Activation: Rat, Liver, S-9, Aroclor 1254 (10%), Method: Preincubation) was “active; positive”.
In the case of `Oc1cc(O)cc(/C=C/c2ccc(O)c(O)c2)c1`, the mutagenic call is “inactive; negative” (Test System: Ames Salmonella typhimurium, Strain/Indicator: TA102, Metabolic Activation: None, Method: Preincubation) and “inactive; negative” (Test System: Ames Salmonella typhimurium, Strain/Indicator: TA102, Metabolic Activation: Rat, Liver, S-9, Aroclor 1254 in 0.154 M KCl, Method: Preincubation).
With `CCC(=O)OCc1cccc([N+](=O)[O-])c1`, the mutagenic call is, setting by setting: under setting [3], “inactive; negative”; under setting [4], “inactive; negative”; under setting [5], “inactive; negative”.
Turning to `CCC/C=C/C=O`, the mutagenic call is “inactive; negative” (Test System: AMES SALMONELLA TYPHIMURIUM, Strain/Indicator: TA97A, Metabolic Activation: NONE, Method: DESICCATOR); “inactive; negative” (Test System: AMES SALMONELLA TYPHIMURIUM, Strain/Indicator: TA97A, Metabolic Activation: S-9, Method: DESICCATOR); “inactive; negative” (Test System: AMES SALMONELLA TYPHIMURIUM, Strain/Indicator: TA98, Metabolic Activation: NONE, Method: DESICCATOR); “inactive; negative” (Test System: AMES SALMONELLA TYPHIMURIUM, Strain/Indicator: TA100, Metabolic Activation: NONE, Method: DESICCATOR); “inactive; negative” under setting [4]; “active; positive” (Test System: AMES SALMONELLA TYPHIMURIUM, Strain/Indicator: TA100, Metabolic Activation: NONE, Method: PREINCUBATION (THREEFOLD CELL DENSITY)). Further, the mutagenic call is “inactive; negative” under setting [5]; “active; positive” (Test System: AMES SALMONELLA TYPHIMURIUM, Strain/Indicator: TA100, Metabolic Activation: RAT, LIVER, S-9, AROCLOR 1254, Method: PREINCUBATION (THREEFOLD CELL DENSITY)); “inactive; negative” (Test System: AMES SALMONELLA TYPHIMURIUM, Strain/Indicator: TA100, Metabolic Activation: S-9, Method: DESICCATOR); “inactive; negative” (Test System: AMES SALMONELLA TYPHIMURIUM, Strain/Indicator: TA102, Metabolic Activation: S-9, Method: DESICCATOR); “inactive; negative” (Test System: AMES SALMONELLA TYPHIMURIUM, Strain/Indicator: TA104, Metabolic Activation: NONE, Method: DESICCATOR); “active; positive” (Test System: AMES SALMONELLA TYPHIMURIUM, Strain/Indicator: TA104, Metabolic Activation: NONE, Method: PREINCUBATION). Besides, the mutagenic call by setting is: (Test System: AMES SALMONELLA TYPHIMURIUM, Strain/Indicator: TA104, Metabolic Activation: S-9, Method: DESICCATOR) “inactive; negative”; (Test System: CHINESE HAMSTER V-79, Strain/Indicator: V-79/6-THIOGUANINE, Metabolic Activation: NONE, Method: STANDARD PLATE) “active; positive”; (Test System: CHINESE HAMSTER V-79, Strain/Indicator: V-79/OUABAIN, Metabolic Activation: NONE, Method: STANDARD PLATE) “inactive; negative”.
Consider `O=C(/C=C/c1ccccc1)OC/C=C/c1ccccc1`, for which the mutagenic call is, setting by setting: under setting [6], “active; positive”; (Test System: Mouse lymphoma, Strain/Indicator: L5178Y (tk+/tk-), Metabolic Activation: None, Method: Suspension/plate) “active; inconclusive (previous evaluation positive)”; (Test System: Mouse lymphoma, Strain/Indicator: L5178Y (tk+/tk-), Metabolic Activation: Rat, Liver, S-9, Aroclor 1254, Method: Suspension/plate) “active; positive”.
As to `CC(=O)OCN(N=O)c1ccccc1`, the mutagenic call (Test System: AMES SALMONELLA TYPHIMURIUM, Strain/Indicator: TA1537, Metabolic Activation: NONE, Method: LIQUID INCUBATION) is “active; positive”.
Regarding `O.O.O.O.O.[Cd+2].[Cd+2].[Cl-].[Cl-].[Cl-].[Cl-]`, the mutagenic call (End Point: In vivo micronucleus, Test System: Bone marrow polychromatic erythrocytes, Species: Mouse, Strain/Sex: C57BL/6J/Han/Male, Route: Oral) was “inactive; negative”; the mutagenic call under setting [3] was “inactive; negative”; the mutagenic call (Test System: AMES SALMONELLA TYPHIMURIUM, Strain/Indicator: TA98, Metabolic Activation: RAT LIVER S-9, PHENOBARBITAL AND BETA-NAPHTHOFLAVONE, Method: PREINCUBATION) was “inactive; negative”; the mutagenic call (Test System: AMES SALMONELLA TYPHIMURIUM, Strain/Indicator: TA100, Metabolic Activation: RAT LIVER S-9, PHENOBARBITAL AND BETA-NAPHTHOFLAVONE, Method: PREINCUBATION) was “inactive; negative”; the mutagenic call (Test System: AMES SALMONELLA TYPHIMURIUM, Strain/Indicator: TA1535, Metabolic Activation: RAT LIVER S-9, PHENOBARBITAL AND BETA-NAPHTHOFLAVONE, Method: PREINCUBATION) is “inactive; negative”; the mutagenic call (Test System: AMES SALMONELLA TYPHIMURIUM, Strain/Indicator: TA1537, Metabolic Activation: NONE, Method: PREINCUBATION) was “inactive; negative”. For the same molecule, the mutagenic call is, setting by setting: (Test System: AMES SALMONELLA TYPHIMURIUM, Strain/Indicator: TA1537, Metabolic Activation: RAT LIVER S-9, PHENOBARBITAL AND BETA-NAPHTHOFLAVONE, Method: PREINCUBATION) “inactive; negative”; under setting [6], “inactive; negative”; (Test System: AMES SALMONELLA TYPHIMURIUM, Strain/Indicator: TA1538, Metabolic Activation: RAT LIVER S-9, PHENOBARBITAL AND BETA-NAPHTHOFLAVONE, Method: PREINCUBATION) “inactive; negative”; (Test System: E.COLI, Strain/Indicator: WP2UVRA, Metabolic Activation: NONE, Method: PREINCUBATION) “inactive; negative”; (Test System: E.COLI, Strain/Indicator: WP2UVRA, Metabolic Activation: RAT LIVER S-9, PHENOBARBITAL AND BETA-NAPHTHOFLAVONE, Method: PREINCUBATION) “inactive; negative”.
With `CCN=C=S`, the mutagenic call (Test System: AMES SALMONELLA TYPHIMURIUM, Strain/Indicator: TA97, Metabolic Activation: NONE, Method: PREINCUBATION) was “inactive; negative”; the mutagenic call (Test System: AMES SALMONELLA TYPHIMURIUM, Strain/Indicator: TA97, Metabolic Activation: RAT, LIVER, S-9, AROCLOR 1254, Method: PREINCUBATION) is “inactive; negative”; the mutagenic call (Test System: AMES SALMONELLA TYPHIMURIUM, Strain/Indicator: TA102, Metabolic Activation: NONE, Method: PREINCUBATION) was “inactive; negative”; the mutagenic call (Test System: AMES SALMONELLA TYPHIMURIUM, Strain/Indicator: TA102, Metabolic Activation: RAT, LIVER, S-9, AROCLOR 1254, Method: PREINCUBATION) was “inactive; negative”.
On to `CC12C=CC(C1)C1C(=O)OC(=O)C12` (stereo not given), for which the mutagenic call reads like this: under setting [1], “inactive; negative”; (Test System: Ames Salmonella typhimurium, Strain/Indicator: TA98, Metabolic Activation: Rat, Liver, S-9, Phenobarbital and 5,6-benzoflavone, Method: Preincubation) “inactive; negative”; under setting [2], “inactive; negative”; (Test System: Ames Salmonella typhimurium, Strain/Indicator: TA100, Metabolic Activation: Rat, Liver, S-9, Phenobarbital and 5,6-benzoflavone, Method: Preincubation) “inactive; negative”; (Test System: Ames Salmonella typhimurium, Strain/Indicator: TA1535, Metabolic Activation: None, Method: Preincubation) “inactive; negative”; (Test System: Ames Salmonella typhimurium, Strain/Indicator: TA1535, Metabolic Activation: Rat, Liver, S-9, Phenobarbital and 5,6-benzoflavone, Method: Preincubation) “inactive; negative”. Besides, the mutagenic call (Test System: Ames Salmonella typhimurium, Strain/Indicator: TA1537, Metabolic Activation: None, Method: Preincubation) was “inactive; negative”; the mutagenic call (Test System: Ames Salmonella typhimurium, Strain/Indicator: TA1537, Metabolic Activation: Rat, Liver, S-9, Phenobarbital and 5,6-benzoflavone, Method: Preincubation) is “inactive; negative”; the mutagenic call (Test System: E. coli, Strain/Indicator: WP2uvrA/pKM101, Metabolic Activation: None, Method: Preincubation) was “inactive; negative”; the mutagenic call (Test System: E. coli, Strain/Indicator: WP2uvrA/pKM101, Metabolic Activation: Rat, Liver, S-9, Phenobarbital and 5,6-benzoflavone, Method: Preincubation) was “inactive; negative”.
